According to ChEMBL document CHEMBL5338754, “Identification of Binding Sites in the Nucleotide-Binding Domain of P-Glycoprotein for a Potent and Nontoxic Modulator, the Amine-Containing Monomeric Flavonoid FM04” (J Med Chem, 2023):

Legend:
[1] = target: T1, ATP-dependent translocase ABCB1 (Homo sapiens, UniProt P08183); assay: Negative allosteric modulator activity at P-gp in human LCC6MDR cells overexpressing P-gp assessed as reversal of P-gp mediated paclitaxel resistance activity by measuring relative fold at 1 uM incubated for 5 days by MTS assay; format: cell-based; conditions: 120 h, time 5 day
T1 sequence (P08183 whole entry): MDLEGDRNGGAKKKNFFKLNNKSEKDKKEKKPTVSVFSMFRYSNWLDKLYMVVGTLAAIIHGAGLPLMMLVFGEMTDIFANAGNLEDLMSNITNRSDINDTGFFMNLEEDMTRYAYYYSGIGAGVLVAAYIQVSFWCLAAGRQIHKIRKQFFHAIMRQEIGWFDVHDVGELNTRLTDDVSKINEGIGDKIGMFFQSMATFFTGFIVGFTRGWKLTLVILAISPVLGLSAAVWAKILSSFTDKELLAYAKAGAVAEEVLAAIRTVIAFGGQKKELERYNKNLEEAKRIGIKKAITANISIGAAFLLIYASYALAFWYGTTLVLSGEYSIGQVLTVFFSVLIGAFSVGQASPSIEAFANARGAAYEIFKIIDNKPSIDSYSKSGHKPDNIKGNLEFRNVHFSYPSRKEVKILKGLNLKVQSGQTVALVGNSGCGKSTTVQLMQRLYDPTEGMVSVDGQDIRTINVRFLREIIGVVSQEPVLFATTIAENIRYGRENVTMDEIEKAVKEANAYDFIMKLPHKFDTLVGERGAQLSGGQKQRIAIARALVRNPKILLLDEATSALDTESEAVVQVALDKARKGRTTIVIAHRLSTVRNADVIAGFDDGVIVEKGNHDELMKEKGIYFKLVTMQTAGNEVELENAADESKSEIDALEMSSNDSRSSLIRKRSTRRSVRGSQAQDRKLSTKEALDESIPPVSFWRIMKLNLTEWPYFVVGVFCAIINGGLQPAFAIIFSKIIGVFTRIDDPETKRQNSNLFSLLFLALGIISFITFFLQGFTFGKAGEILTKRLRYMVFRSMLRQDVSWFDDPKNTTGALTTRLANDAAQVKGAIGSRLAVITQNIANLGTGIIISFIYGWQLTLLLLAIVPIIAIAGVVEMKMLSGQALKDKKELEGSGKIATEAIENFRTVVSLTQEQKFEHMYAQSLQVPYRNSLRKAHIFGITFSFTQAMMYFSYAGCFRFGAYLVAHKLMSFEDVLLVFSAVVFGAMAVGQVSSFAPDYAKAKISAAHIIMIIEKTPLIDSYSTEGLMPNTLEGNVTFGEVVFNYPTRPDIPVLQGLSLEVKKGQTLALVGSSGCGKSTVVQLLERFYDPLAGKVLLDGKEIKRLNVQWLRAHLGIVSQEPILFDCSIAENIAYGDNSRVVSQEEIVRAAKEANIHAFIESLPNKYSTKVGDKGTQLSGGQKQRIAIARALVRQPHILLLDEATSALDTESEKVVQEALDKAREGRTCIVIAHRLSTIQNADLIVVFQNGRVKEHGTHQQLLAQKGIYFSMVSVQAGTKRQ

[2] = target: T1, ATP-dependent translocase ABCB1; assay: Negative allosteric modulator activity at P-gp in human LCC6MDR cells assessed as increase in intracellular doxorubicin accumulation using doxorubicin as substrate incubated for 150 mins by microplate reader assay; format: cell-based; conditions: 2.5 h
[3] = target: T1, ATP-dependent translocase ABCB1; assay: Binding affinity to human P-glycoprotein expressed in LCC6MDR cells assessed as stabilization of protein by measuring fluorescence at 1 uM incubated for 1 hr by Western blotting analysis; format: cell-based
[4] = target: T1, ATP-dependent translocase ABCB1; assay: Binding affinity to P-glycoprotein in human LCC6MDR cells assessed as stabilization of protein by measuring fluorescence at 1 uM incubated for 1 hr by Western blotting analysis; format: cell-based
[5] = target: T2, ATP-dependent translocase ABCB1 (Mus musculus, UniProt P06795); assay: Binding affinity to mouse P-glycoprotein expressed in Pichia pastoris assessed as stabilization of protein by measuring fluorescence at 100 uM incubated for 2 hr by Streptavidin-HRP blotting assay
T2 sequence (P06795 whole entry): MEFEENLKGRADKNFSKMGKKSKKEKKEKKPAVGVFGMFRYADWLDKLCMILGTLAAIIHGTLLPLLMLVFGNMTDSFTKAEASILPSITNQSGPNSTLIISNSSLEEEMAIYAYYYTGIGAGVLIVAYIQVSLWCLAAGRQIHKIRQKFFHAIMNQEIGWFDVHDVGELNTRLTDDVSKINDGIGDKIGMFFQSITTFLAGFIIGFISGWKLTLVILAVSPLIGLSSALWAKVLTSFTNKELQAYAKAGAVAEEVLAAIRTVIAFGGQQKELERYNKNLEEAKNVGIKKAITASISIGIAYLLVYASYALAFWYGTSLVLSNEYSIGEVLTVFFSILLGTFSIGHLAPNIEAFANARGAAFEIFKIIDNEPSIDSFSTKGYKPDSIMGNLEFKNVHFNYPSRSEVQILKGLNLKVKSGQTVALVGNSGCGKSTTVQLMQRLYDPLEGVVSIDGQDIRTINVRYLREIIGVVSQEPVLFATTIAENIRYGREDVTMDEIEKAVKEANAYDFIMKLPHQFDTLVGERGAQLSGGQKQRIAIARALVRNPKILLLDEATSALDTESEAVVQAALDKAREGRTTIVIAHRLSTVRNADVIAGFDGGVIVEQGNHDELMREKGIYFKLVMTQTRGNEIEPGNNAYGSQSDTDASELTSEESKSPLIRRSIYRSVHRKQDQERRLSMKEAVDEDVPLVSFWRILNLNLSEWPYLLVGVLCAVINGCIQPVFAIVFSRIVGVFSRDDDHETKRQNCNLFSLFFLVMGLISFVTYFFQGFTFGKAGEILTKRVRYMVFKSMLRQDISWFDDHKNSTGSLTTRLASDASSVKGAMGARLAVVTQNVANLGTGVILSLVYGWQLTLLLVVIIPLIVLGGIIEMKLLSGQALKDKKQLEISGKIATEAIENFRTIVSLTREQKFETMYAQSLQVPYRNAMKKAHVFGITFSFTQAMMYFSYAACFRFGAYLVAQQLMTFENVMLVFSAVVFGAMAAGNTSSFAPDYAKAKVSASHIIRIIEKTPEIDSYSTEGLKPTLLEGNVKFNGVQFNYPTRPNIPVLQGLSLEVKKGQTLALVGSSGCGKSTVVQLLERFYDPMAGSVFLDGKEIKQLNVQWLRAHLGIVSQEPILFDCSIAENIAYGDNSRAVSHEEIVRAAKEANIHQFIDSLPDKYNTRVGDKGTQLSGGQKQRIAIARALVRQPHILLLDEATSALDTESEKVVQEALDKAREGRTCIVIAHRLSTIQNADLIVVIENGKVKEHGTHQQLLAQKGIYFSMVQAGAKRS

[6] = target: T1, ATP-dependent translocase ABCB1; assay: Displacement of FM-04 from human P-glycoprotein expressed in LCC6MDR cells at 1 uM by competitive binding assay; format: cell-based
[7] = target: T2, ATP-dependent translocase ABCB1; assay: Binding affinity to mouse P-glycoprotein expressed in Pichia pastoris assessed as stabilization of protein by measuring fluorescence at 1000 uM incubated for 2 hr by Streptavidin-pull down blotting assay
[8] = target: T2, ATP-dependent translocase ABCB1; assay: Binding affinity to mouse P-glycoprotein expressed in Pichia pastoris assessed as stabilization of protein by measuring fluorescence at 1 uM by Western blotting analysis
[9] = target: T1, ATP-dependent translocase ABCB1; assay: Binding affinity to human P-glycoprotein expressed in LCC6MDR cells assessed as stabilization of protein by measuring fluorescence at 0.1 to 1 uM by Western blotting analysis; format: cell-based; conditions: dose 0.1-1 µM
[10] = target: T2, ATP-dependent translocase ABCB1; assay: Displacement of FM04 from mouse P-glycoprotein expressed in Pichia pastoris at 1 uM by competitive binding assay
[11] = target: T2, ATP-dependent translocase ABCB1; assay: Binding affinity to biotin-labeled mouse P-glycoprotein expressed in Pichia pastoris assessed as stabilization of protein by measuring fluorescence at 100 uM incubated for 2 hr by Streptavidin-HRP blotting assay
[12] = target: T2, ATP-dependent translocase ABCB1; assay: Binding affinity to mouse P-glycoprotein expressed in Pichia pastoris assessed as stabilization of protein by measuring fluorescence at 100 uM incubated for 2 hr by Streptavidin-pull down blotting assay

Compound | fold change (FC) [1] | Activity [3] | Activity [4] | further results
O=c1cc(-c2ccc(OCCOCCOCCOCCOc3ccc(-c4cc(=O)c5c(O)cc(O)cc5o4)cc3)cc2)oc2cc(O)cc(O)c12 | 11 |  |  | 
O=c1cc(-c2ccc(OCCOCCN(CCOCCOc3ccc(-c4cc(=O)c5ccccc5o4)cc3)Cc3ccccc3)cc2)oc2ccccc12 | 68 |  |  | 
O=c1cc(-c2ccc(OCCOCCOCCOCCOc3ccc(-c4cc(=O)c5ccccc5o4)cc3)cc2)oc2ccccc12 | 28 |  |  | 
O=c1cc(-c2ccc(OCCOCCNCc3ccc(C4(C(F)(F)F)N=N4)cc3)cc2)oc2ccccc12 | 56.3 |  |  | Activity [2]: Active
C#CCN(CCOCCOc1ccc(-c2cc(=O)c3ccccc3o2)cc1)Cc1ccc(C2(C(F)(F)F)N=N2)cc1 | 2.3 | Not Active | Not Active | 
O=c1cc(-c2ccc(OCCOCCN(Cc3ccc(C4(C(F)(F)F)N=N4)cc3)Cc3ccc(C4(C(F)(F)F)N=N4)cc3)cc2)oc2ccccc12 | 0.8 |  |  | 
C#CCOc1cccc2oc(-c3ccc(OCCOCCNCc4ccc(C5(C(F)(F)F)N=N5)cc4)cc3)cc(=O)c12 | 92.6 | Active | Not Active | Activity [5]: Not Active; Activity [6]: Not Active; Activity [7]: Active; Activity [8]: Active; Activity [2]: Active; Activity [9]: Dose-Dependent Effect; Activity [10]: Not Active; Activity [11]: Active; Activity [12]: Active
C#CCNc1cc(C)cc2c(=O)cc(-c3ccc(OCCOCCNCc4ccc(C5(C(F)(F)F)N=N5)cc4)cc3)oc12 | 0.5 | Not Active | Not Active | 
C#CCNc1cc(C)cc2c(=O)cc(-c3ccc(OCCOCCN(Cc4ccc(C5(C(F)(F)F)N=N5)cc4)Cc4ccc(C5(C(F)(F)F)N=N5)cc4)cc3)oc12 | 0.4 |  |  | 
[N-]=[N+]=NCc1cc(CNCCOCCOc2ccc(-c3cc(=O)c4ccccc4o3)cc2)cc(N=[N+]=[N-])c1 | 61.7 | Active | Not Active | Activity [2]: Active
O=c1cc(-c2ccc(O)cc2)oc2cc(O)cc(O)c12 [APIGENIN] | 1 |  |  | 
